{"source": "patent EP0497921B1", "about": "“METHOD FOR INHIBITING ENZYMATIC SYNTHESIS OF NUCLEIC ACIDS USING ISOPSORALENS” (ISAACS, Stephen T., priority 1989, dated 1991)", "test_system": "115-mer", "experiment": "Crosslinkable Oligonucleotide Probe Analysis (COP) of sterilized PCR product", "assay_type": "biochemical, HIV", "source_text": "Because of this, these isopsoralen-modified single strands should remain detectable by hybridization procedures. […] Preparation of Samples: The HIV 115-mer system with primers SK-38/SK-39 was used for the experiment (see Figure 36, \"HIV Oligonucleotide System\"). Two types of starting template were used: previously amplified 115-mer or genomic DNA, isolated from an individual known to be infected with HIV (MACS sample). For previously amplified 115-mer between 10^5 and 10^6 copies were used for starting template. For the genomic (MACS) sample, approximately 1 µg (3 x 10^5 copies) of genomic DNA were used. Two PCR samples were prepared for each type of template then amplification was carried out for either 20 or 30 cycles. One of the two PCR samples contained AMDMIP at 200 µg/ml while the other was AMDMIP free. Following amplification, the AMDMIP containing samples were divided and half were irradiated. Analysis (OH or COP) was then done on the three samples from each set (AMDMIP free, AMDMIP unirradiated, and AMDMIP irradiated) for each cycle number. The AMDMIP free samples served as control, the AMDMIP unirradiated sampes adressed the effect of non-covalently bound AMDMIP on detection, and AMDMIP irradiated samples addressed the effect of covalently bound AMDMIP on detection.\nCOP and OH assays were performed a follows. 10 µl of the PCR reaction mixture was added to 3.3 µl of \"probe mix\" [5'-labelled SK-19 (normal or monoadducted) at 10^-8 M containing EDTA and an appropriate salt mixture], overlaid with 30-40 µl of light mineral oil, then heated to 95-100°C for 5 minutes. For COP, the hybridization mixture as placed in the PTI device at 56°C and irradiated for 15 minutes. Following this, loading dyes (containing urea or formamide) were added, the sample heated to 95-100°C for 5 minutes, quick chilled on wet ice, then loaded on a denaturing PAGE gel followed by electrophoresis under denaturing conditions. For OH reactions, the hybridization mixture was incubated at 56°C for 30 minutes, loading dyes added, and aliquots loaded directly into a native PAGE gel followed by electrophoresis under native conditions. 1. Samples 1-6 contain previously amplified 115-mer that was re-amplified either 20 (samples 1,3,5) or 30 (Samples 2,4,6) cycles then detected by COP. Samples 1 & 2 are controls (without AMDMIP); samples 3 and 4 are (with AMDMIP and with light) sterilized samples; samples 5 & 6 are (with AMDMIP but without light) controls. The bands corresponding to amplified 115-mer crosslinked to labelled 41-mer probe (SK-19 MA) are the upper bands in Figure 46. Samples 11-16 are the same series except the MACS sample was used as template.", "key": {"[1]": {"settings": "Sample 4: previously amplified 115-mer, 30 cycles, with AMDMIP and with light"}, "[2]": {"settings": "Sample 5: previously amplified 115-mer, 20 cycles, with AMDMIP but without light"}, "[3]": {"settings": "Sample 6: previously amplified 115-mer, 30 cycles, with AMDMIP but without light"}, "[4]": {"settings": "Sample 13: MACS genomic template, 20 cycles, with AMDMIP and with light"}, "[5]": {"settings": "Sample 14: MACS genomic template, 30 cycles, with AMDMIP and with light"}, "[6]": {"settings": "Sample 15: MACS genomic template, 20 cycles, with AMDMIP but without light"}, "[7]": {"settings": "Sample 16: MACS genomic template, 30 cycles, with AMDMIP but without light"}}, "data": [{"substance": "4'-Aminomethyl-4,5'-dimethylisopsoralen [AMDMIP]", "values": [{"measurement": "CPM", "setting": "Sample 3: previously amplified 115-mer, 20 cycles, with AMDMIP (200 µg/ml) and with light", "value": 1944, "unit": "CPM"}, {"measurement": "CPM (%) relative to sample without AMDMIP", "setting": "Sample 3: previously amplified 115-mer, 20 cycles, with AMDMIP and with light", "value": 62, "unit": "%"}, {"measurement": "CPM", "setting": "[1]", "value": 36452, "unit": "CPM"}, {"measurement": "CPM (%) relative to sample without AMDMIP", "setting": "[1]", "value": 83, "unit": "%"}, {"measurement": "CPM", "setting": "[2]", "value": 4480, "unit": "CPM"}, {"measurement": "CPM (%) relative to sample without AMDMIP", "setting": "[2]", "value": 144, "unit": "%"}, {"measurement": "CPM", "setting": "[3]", "value": 39596, "unit": "CPM"}, {"measurement": "CPM (%) relative to sample without AMDMIP", "setting": "[3]", "value": 90, "unit": "%"}, {"measurement": "CPM", "setting": "[4]", "value": 460, "unit": "CPM"}, {"measurement": "CPM (%) relative to sample without AMDMIP", "setting": "[4]", "value": 52, "unit": "%"}, {"measurement": "CPM", "setting": "[5]", "value": 41777, "unit": "CPM"}, {"measurement": "CPM (%) relative to sample without AMDMIP", "setting": "[5]", "value": 78, "unit": "%"}, {"measurement": "CPM", "setting": "[6]", "value": 464, "unit": "CPM"}, {"measurement": "CPM (%) relative to sample without AMDMIP", "setting": "[6]", "value": 53, "unit": "%"}, {"measurement": "CPM", "setting": "[7]", "value": 35176, "unit": "CPM"}, {"measurement": "CPM (%) relative to sample without AMDMIP", "setting": "[7]", "value": 66, "unit": "%"}]}]}
